Results on one molecule are retold here after US20250275948A1, “(N-[4-(2,3-DIHYDRO-1H-INDEN-5-YL)-1,3-THIAZOL-2-YL]-2-[4-METHYL-4-(NAPHTHALEN-2-YL)-2,5-DIOXOIMIDAZOLIDIN-1-YL]ACETAMIDE AS STABILIZER OF CLOCK:BMAL1 INTERACTION FOR THE TREATMENT OF CIRCADIAN RHYTHM DISEASES AND DISORDERS” (KOC UNIVERSITESI, priority 2022, published 2025).

Assay [1] concerns NIH 3T3 Bmal1-dLuc and U2OS Bmal1-dLuc cells. As to the kind of experiment: Real-time monitoring of circadian oscillation. Type of assay: cell-based. As to the method:
NIH 3T3 Bmal1-dLuc and U2OS Bmal1-dLuc cells were used for real-time monitoring of circadian oscillation. While LumiCycle 32 (Actimetrics, USA) was used for recording the luminescence signals of NIH 3T3 Bmal1-dLuc cells, Synergy H1 (BioTek, USA) was used for recording the luminescence signals of U2OS Bmal1-dLuc cells. NIH 3T3 Bmal1-dLuc cells were plated in 35 mm cell culture dish at density of 45×10^4 cell/plate and incubated overnight at 37° C. under 5% CO2. The next day, cell medium was replaced with 0.1 μM Dexamethasone (Sigma D-8893) containing DMEM to synchronize the cells. After 2 hours incubation, cell media was exchanged with appropriate amount of CLK95 containing recording medium (10 g low glucose DMEM powder (Sigma D2902), 3.5 mg/mL D(+) glucose powder (Sigma G7021), 0.35 mg/mL sodium bicarbonate (Sigma S5761), 10 mM HEPES (Gibco 15630106), 5% FBS (Gibco, 16000044), 1% NEAA (Multicell 321-011-EL), 25 U/mL streptomycin-penicillin (Gibco 15140-122) which was supplemented with 0.1 mM Luciferin. Then plates were sealed with silicone grease to prevent evaporation and immediately placed in LumiCycle. This instrument continuously recorded the luminescence for each plate for 5-7 days with 10 minutes intervals at 37° C. LumiCycle Analysis software (Actimetrics) was used to analyse the changes in circadian rhythm. The data of the first day was excluded from analysis due to transient deviations caused after medium change.
For the experiments that were performed using Synergy-H1, U2OS Bmal1-dLuc cells were plated as triplicates into an opaque 96-well plate (5×10^4 cell/well). After synchronizing and treating the cells with CLK95, opaque 96-well plate was sealed with an optically clear film and placed under Synergy-H1 instrument. Luminescence signals were recorded for 5-7 days with 24 minutes intervals at 32° C.

Assay [2] deals with WT, Clock knockout and Bmal1 knockout MEF cells. In words: Circadian rhythm monitoring in WT, Clock KO and Bmal1 KO MEF cells transduced with Bmal1-dLuc. The assay is classed as cell-based, mouse. Conditions: WT vs Clock KO vs Bmal1 KO MEF cells. As to the method:
Wild type (WT), Clock knockout (KO), and Bmal1 KO mouse embryonic fibroblast (MEF) cells were transduced with Bmal1-dLuc lentiviral particles to enable us to monitor the effect of CLK95 on circadian oscillation. To this end, virus particles were produced as follow: HEK 293T cells were transfected with 10 μg pLV6-Bmal1-dluc, 9 μg pCMV-ΔR8.2dvpr packaging and lug pCMV-VSVG envelope vectors at ˜70-80% confluency. The plasmid cocktail was mixed with 20 μL PEI in 400 μL DMEM and incubated at room temperature for 10 minutes and cells were transfected. After 16 hours of incubation at 37° C. under 5% CO2, 3 mL fresh D10 medium were added to plates. 48 hours after transfection, cell medium was replaced with 8 mL fresh D10 medium. Lentiviral particles were harvested at 72 and 96 hours post transfection. Collected particles were filtered through 0.45 μM syringe filter and aliquoted (750 μL) for storage at −80° C. for further use.
WT, Clock KO, and Bmal1 KO MEF cells were transduced with Bmal1-dluc lentiviral particles as follow: Cells were seeded in 35 mm cell culture plates at the density of 1×10^5 cell/plate. […] 72-hours post-transduction cells were synchronized with Dexamethasone (0.1 μM) and prepared for luminescence recording of the circadian oscillation as indicated at section 3.4

The mark [3] stands for this setting: NIH3T3 Bmal1-dLuc (Lumicycle) and U2OS Bmal1-dLuc (Synergy H1) cells.

With `CC1(c2ccc3ccccc3c2)NC(=O)N(CC(=O)Nc2nc(-c3ccc4c(c3)CCC4)cs2)C1=O` (centres unmarked) [CLK95], in assay [1] (Bmal1-dLuc U2OS cells), the “effect on circadian rhythm” value is on record as “destroying the circadian rhythm”. Moreover, in assay [1] (setting [3]), the “effect on circadian amplitude” value is “decreases the amplitude” and the “effect on circadian period” value is recorded as “increases the period”. The “effect of higher doses on endogenous clock” value in assay [1] (higher doses) is given as “completely suppress the endogenous clock”. In addition, the “dependence of circadian phenotype on CLOCK and BMAL1” value in assay [2] was “effecting the circadian phenotype through CLOCK and BMAL1”.
